Experimental data taken from ChEMBL document CHEMBL1201862, “PubChem BioAssay data set” (2004).
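96-well plates; 48 h exposure; 5 concentrations. Endpoints by linear interpolation between flanking doses. Not reached: highest tested concentration assigned. Here, GI50 denotes the concentration required for 50% inhibition of growth.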 Calls of active or inactive are those of the source. No stated cut-off is given here; in the data, active = GI50 up to about 1.1 µM and inactive = higher.

Legend:
Assay in all cases: DTP human tumour cell line panel, 48 h
KM12 = system: KM12
HT-29 = system: HT-29
RXF 393 = system: RXF 393
SK-MEL-28 = system: SK-MEL-28
UACC-62 = system: UACC-62
MDA-N = system: MDA-N
PC-3 = system: PC-3
M14 = system: M14
SF-268 = system: SF-268
RPMI-8226 = system: RPMI-8226
LOX IMVI = system: LOX IMVI
T47D = system: T47D
SK-MEL-2 = system: SK-MEL-2
BT-549 = system: BT-549
EKVX = system: EKVX
MOLT-4 = system: MOLT-4
A549 = system: A549
OVCAR-5 = system: OVCAR-5
UACC-257 = system: UACC-257
SNB-75 = system: SNB-75

Measured: GI50

COc1cccc2c1C(=O)C1=C(C2=O)C(O)CC(C)(C)O1 (stereo not given)
inactive: KM12 27.9 µM | HT-29 37.7 µM | RXF 393 71 µM | SK-MEL-28 > 100 µM | UACC-62 25.1 µM | MDA-N 19.5 µM | PC-3 25.5 µM | M14 54.6 µM | SF-268 55.5 µM | RPMI-8226 22.3 µM | LOX IMVI 24.3 µM | T47D 49.8 µM | SK-MEL-2 36.2 µM | BT-549 63.7 µM | EKVX 43.1 µM | MOLT-4 29 µM | A549 32.1 µM | OVCAR-5 58.9 µM | UACC-257 22.4 µM | SNB-75 > 100 µM

CCN(CC)CCC(=O)c1ccc(Oc2ccccc2)cc1
inactive: KM12 13.1 µM | HT-29 19.1 µM | RXF 393 18.9 µM | SK-MEL-28 17.5 µM | UACC-62 15.9 µM | MDA-N 16.5 µM | PC-3 39 µM | M14 38.1 µM | SF-268 20.8 µM | RPMI-8226 5.79 µM | LOX IMVI 16.8 µM | T47D 19 µM | SK-MEL-2 97.7 µM | BT-549 18.7 µM | EKVX 20.8 µM | MOLT-4 20 µM | A549 > 100 µM | OVCAR-5 20.7 µM | UACC-257 17.2 µM | SNB-75 19.5 µM

Nc1nc2cc(CNc3ccc(C(=O)NC(CCC(=O)O)C(=O)O)cc3)ccc2nc1-c1ccccc1 (stereo not given)
inactive: KM12 > 10 µM | HT-29 > 10 µM | RXF 393 > 10 µM | SK-MEL-28 > 10 µM | UACC-62 > 10 µM | MDA-N > 10 µM | PC-3 > 10 µM | M14 > 10 µM | SF-268 > 10 µM | RPMI-8226 > 10 µM | LOX IMVI > 10 µM | T47D > 10 µM | SK-MEL-2 > 10 µM | BT-549 > 10 µM | EKVX > 10 µM | MOLT-4 > 10 µM | A549 > 10 µM | OVCAR-5 > 10 µM | UACC-257 > 10 µM | SNB-75 > 10 µM

CCN(CC)c1ccc2cc(C(=O)NCc3ccccc3)c(=N)oc2c1
inactive: KM12 8.93 µM | HT-29 9.02 µM | RXF 393 47.5 µM | SK-MEL-28 66.2 µM | UACC-62 14.3 µM | MDA-N 70.5 µM | PC-3 19.3 µM | M14 11.1 µM | SF-268 > 79.6 µM | RPMI-8226 6.95 µM | LOX IMVI 4.7 µM | T47D 4.33 µM | SK-MEL-2 21.4 µM | BT-549 23.5 µM | EKVX 13.7 µM | MOLT-4 24.9 µM | A549 42.1 µM | OVCAR-5 > 100 µM | UACC-257 20.4 µM | SNB-75 37.3 µM

O=c1[nH]nc(Cc2ccccc2)n1/N=C/c1ccc([N+](=O)[O-])o1
active: LOX IMVI 0.659 µM | BT-549 0.308 µM
inactive: KM12 2.15 µM | HT-29 1.68 µM | RXF 393 1.88 µM | SK-MEL-28 2.2 µM | UACC-62 1.75 µM | MDA-N 1.69 µM | PC-3 3.15 µM | M14 2.24 µM | SF-268 2.59 µM | RPMI-8226 2.63 µM | T47D 6.7 µM | SK-MEL-2 3.56 µM | EKVX 3.77 µM | MOLT-4 2.42 µM | A549 4.1 µM | OVCAR-5 6.68 µM | UACC-257 3.56 µM | SNB-75 3.3 µM

Cn1ccnc1Sc1ccc(/C=N/c2ccc3nc(SCC(=O)NC4CCCCC4)sc3c2)cc1[N+](=O)[O-]
inactive: KM12 > 100 µM | HT-29 > 100 µM | RXF 393 7.45 µM | SK-MEL-28 > 100 µM | UACC-62 19.5 µM | MDA-N > 100 µM | PC-3 > 100 µM | M14 38.2 µM | SF-268 22.6 µM | RPMI-8226 > 100 µM | LOX IMVI 95.1 µM | T47D > 100 µM | SK-MEL-2 18.6 µM | BT-549 14.1 µM | EKVX > 100 µM | MOLT-4 > 100 µM | A549 > 100 µM | OVCAR-5 > 100 µM | UACC-257 > 100 µM | SNB-75 2.7 µM

COc1cc(/C=C\c2nnc(/C=C\c3ccc(O)c(OC)c3)s2)ccc1O
inactive: KM12 2.2 µM | HT-29 7.31 µM | RXF 393 1.16 µM | SK-MEL-28 5.35 µM | UACC-62 2.48 µM | PC-3 3.94 µM | M14 2.11 µM | SF-268 4.06 µM | RPMI-8226 1.98 µM | LOX IMVI 2.59 µM | T47D 2.12 µM | SK-MEL-2 3.61 µM | BT-549 1.89 µM | EKVX 3.74 µM | MOLT-4 1.74 µM | A549 3.13 µM | OVCAR-5 22.2 µM | UACC-257 2.16 µM | SNB-75 2.33 µM
active: MDA-N 0.689 µM

CN1CC=C(C#CC(C)(C)O)CC1
inactive: KM12 > 37.5 µM | HT-29 > 37.5 µM | RXF 393 > 37.5 µM | SK-MEL-28 > 37.5 µM | UACC-62 > 37.5 µM | MDA-N > 37.5 µM | PC-3 > 37.5 µM | M14 > 37.5 µM | SF-268 > 37.5 µM | RPMI-8226 > 37.5 µM | LOX IMVI > 37.5 µM | T47D > 37.5 µM | SK-MEL-2 > 37.5 µM | BT-549 > 37.5 µM | EKVX > 37.5 µM | MOLT-4 > 37.5 µM | A549 > 37.5 µM | OVCAR-5 > 37.5 µM | UACC-257 > 37.5 µM | SNB-75 > 37.5 µM

N/N=C(/C=C1\C(=O)Nc2ccccc21)c1ccccc1
inactive: KM12 11.1 µM | HT-29 19.9 µM | RXF 393 20 µM | SK-MEL-28 26.7 µM | UACC-62 24.6 µM | MDA-N 3.77 µM | PC-3 20.3 µM | M14 15.5 µM | SF-268 55.6 µM | RPMI-8226 21 µM | LOX IMVI 22.2 µM | T47D 66.4 µM | SK-MEL-2 61.8 µM | BT-549 15.4 µM | EKVX 32.9 µM | MOLT-4 19.7 µM | A549 29.6 µM | OVCAR-5 50.9 µM | UACC-257 36.1 µM | SNB-75 18.7 µM

CN(C)CCNC(=O)c1cnn(C)c1[N+](=O)[O-]
inactive: KM12 68.1 µM | HT-29 33.4 µM | RXF 393 65.6 µM | SK-MEL-28 > 100 µM | UACC-62 52.4 µM | MDA-N 41.6 µM | PC-3 36.1 µM | M14 > 100 µM | SF-268 > 100 µM | RPMI-8226 > 100 µM | LOX IMVI 46.7 µM | T47D > 100 µM | SK-MEL-2 > 100 µM | BT-549 > 100 µM | EKVX > 100 µM | MOLT-4 > 100 µM | A549 > 100 µM | OVCAR-5 > 100 µM | UACC-257 53 µM | SNB-75 > 100 µM
